Test results published in patent US11000033B2, “Ketone or oxime compound, and herbicide” (NISSAN CHEMICAL CORPORATION, priority 2014, dated 2021).

Assays:
Format in all cases: in vivo
Veronica persica = assay: Test Example 5: herbicidal effect by foliage application, plastic box (symbol R); settings: 320 g/ha, 3 weeks after application
In short: (§1)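 After sowing into sterilized diluvial soil and growing two weeks under glass at 25° C. to 30° C., seedlings receive a uniform foliar spray of diluted emulsion. Damage is judged visually three weeks on.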

Digitaria ciliaris = assay: Test Example 5: herbicidal effect by foliage application, plastic box (symbol F); settings: 320 g/ha, 3 weeks after application
In short: as §1

Alopecurus myosuroides [1] = assay: Test Example 5: herbicidal effect by foliage application, plastic box (symbol J); settings: 320 g/ha, 3 weeks after application
In short: as §1

[2] = system: Echinochloa oryzacola Vasing.; assay: Test Example 2: herbicidal activity, application during weed generation in submerged conditions (symbol A); settings: Table 23; application herbicide amount 320 g/ha; grade 0-5 by criteria of Test Example 1
In short: (§2)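 Submerged alluvial soil (4 cm) sown with mixed seed; greenhouse 25–30° C. 1–2 leaf: diluted emulsion onto water surface, preset dose. Visual score, 3 wk.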

Apera spica-venti = assay: Test Example 4: herbicidal effect by soil treatment (symbol L); settings: for Herbicidal effect grade, L: Apera spica-venti: application herbicide amount 320 g/ha; for L: Apera spica-venti, herbicidal effect grade: 320 g/ha
In short: (§3)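 Seeds were sown in sterilized diluvial soil, covered with about 1.5 cm of soil, and the soil surface was sprayed with a water-diluted emulsion of the compound at a predetermined rate. Plants grew in a greenhouse at 25° C. to 30° C.; effects were scored visually 3 weeks after application.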

transplanted rice plant = assay: Test Example 1: effect on crop, application before weed generation in submerged conditions (symbol a); settings: application herbicide amount 320 g/ha
In short: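 Alluvial soil pots flooded to 4 cm water, sown with Echinochloa oryzacola, Scirpus juncoides and Monochoria vaginalis, then transplanted with 2.5 leaf stage rice seedlings; pre-emergence application. Greenhouse 25° C. to 30° C.; scored 0–5 by herbicidal ratio 3 weeks after application.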

Avena fatua = assay: Test Example 4: herbicidal effect by soil treatment (symbol I); settings: for Herbicidal effect grade, I: Avena fatua: application herbicide amount 320 g/ha; for I: Avena fatua, herbicidal effect grade: 320 g/ha
In short: as §3

Alopecurus myosuroides [3] = assay: Test Example 4: herbicidal effect by soil treatment (symbol J); settings: for Herbicidal effect grade, J: Alopecurus myosuroides: application herbicide amount 320 g/ha; for J: Alopecurus myosuroides, herbicidal effect grade: 320 g/ha
In short: as §3

Scirpus juncoides = assay: Test Example 2: herbicidal activity, application during weed generation in submerged conditions (symbol B); settings: Table 23; application herbicide amount 320 g/ha; grade 0-5 by criteria of Test Example 1
In short: as §2

corn [4] = assay: Test Example 4: effect on crop by soil treatment (symbol c); settings: for Effect on crop grade, c: corn: application herbicide amount 320 g/ha; for c: corn, effect grade on crop: 320 g/ha
In short: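 Steps: fill box with sterilized diluvial soil; sow seed spot-like; cover with ~1.5 cm soil; grow in greenhouse (25° C. to 30° C.).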

Amaranthus retroflexus = assay: Test Example 5: herbicidal effect by foliage application, plastic box (symbol N); settings: 320 g/ha, 3 weeks after application
In short: as §1

[5] = system: Echinochloa crus-galli var. crus-galli; assay: Test Example 3: herbicidal effect by foliage application, Wagner pot (symbol H); settings: application herbicide amount 320 g/ha; for H (Echinochloa crus-galli var. crus-galli) herbicidal effect grade: Table 24
In short: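 Steps: fill pot with alluvial soil; add water to 0.1–0.5 cm depth; sow weed and rice seed; grow 14 days at 25–30 °C; spray diluted emulsion over the leaves; rate effect after 3 weeks.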

Abutilon theophrasti = assay: Test Example 4: herbicidal effect by soil treatment (symbol M); settings: for Herbicidal effect grade, M: Abutilon theophrasti: application herbicide amount 320 g/ha; for M: Abutilon theophrasti, herbicidal effect grade: 320 g/ha
In short: as §3

corn [6] = assay: Test Example 5: effect on crop by foliage application, plastic box (symbol c); settings: 320 g/ha, 3 weeks after application
In short: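 In a plastic box 7 cm deep filled with sterilized diluvial soil, seeds of crops and weeds such as Digitaria ciliaris, Avena fatua and Amaranthus retroflexus are sown in spots and covered with about 1.5 cm of soil before greenhouse growth at 25–30° C.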

SMILES | R: Veronica persica, herbicidal effect grade (Veronica persica) | F: Digitaria ciliaris, herbicidal effect grade (Digitaria ciliaris) | J: Alopecurus myosuroides, herbicidal effect grade (Alopecurus myosuroides [1]) | Herbicidal effect grade, A: Echinochloa oryzacola Vasing. [2] | Herbicidal effect grade, L: Apera spica-venti (Apera spica-venti) | a (transplanted rice plant) effect on crop grade (transplanted rice plant) | Herbicidal effect grade, I: Avena fatua (Avena fatua) | Herbicidal effect grade, J: Alopecurus myosuroides (Alopecurus myosuroides [3]) | Herbicidal effect grade, B: Scirpus juncoides (Scirpus juncoides) | Effect on crop grade, c: corn (corn [4]) | N: Amaranthus retroflexus, herbicidal effect grade (Amaranthus retroflexus) | H (Echinochloa crus-galli var. crus-galli) herbicidal effect grade [5] | Herbicidal effect grade, M: Abutilon theophrasti (Abutilon theophrasti) | c: corn, effect on crop grade (corn [6]) | R: Veronica persica, herbicidal effect (criteria 0-5) (Veronica persica) | F: Digitaria ciliaris, herbicidal effect (criteria 0-5) (Digitaria ciliaris) | J: Alopecurus myosuroides, herbicidal effect (criteria 0-5) (Alopecurus myosuroides [1]) | L: Apera spica-venti, herbicidal effect grade (Apera spica-venti) | Effect grade on crop, a: transplanted rice plant (transplanted rice plant) | I: Avena fatua, herbicidal effect grade (Avena fatua) | further results
Cc1cc(-n2cc(Cl)cn2)cc(C)c1C1=C(O)CC(CC(=NOCC(F)(F)F)C(C)C)C1=O (stereo not drawn) [9-014] | 2 (Herbicidal ratio of 20% or higher and lower than 40%) | 5 (Herbicidal ratio of 90% or more (almost completely withered)) | 4 (Herbicidal ratio of 70% or higher and lower than 90%) | 2 (Herbicidal ratio of 20% or higher and lower than 40%) | 0 (Herbicidal ratio of 5% or lower (almost no effect)) | 5 (Herbicidal ratio of 90% or more (almost completely withered)) | 0 (Herbicidal ratio of 5% or lower (almost no effect)) | 0 (Herbicidal ratio of 5% or lower (almost no effect)) | 0 (Herbicidal ratio of 5% or lower (almost no effect)) | 0 (Herbicidal ratio of 5% or lower (almost no effect)) | 0 (Herbicidal ratio of 5% or lower (almost no effect)) | 5 (Herbicidal ratio of 90% or more (almost completely withered)) | 0 (Herbicidal ratio of 5% or lower (almost no effect)) | 5 (Herbicidal ratio of 90% or more (almost completely withered)) | – | – | – | – | – | – | –
CC(CC1CC(O)=C(c2c(C)cc(C)cc2C)C1=O)=NOCc1cccc(Cl)c1 (stereo not drawn) [1-114] | – | – | – | 4 (Herbicidal ratio of 70% or higher and lower than 90%) | – | – | – | – | 3 (Herbicidal ratio of 40% or higher and lower than 70%) | – | – | – | – | – | 2 (Herbicidal ratio of 20% or higher and lower than 40%) | 5 (Herbicidal ratio of 90% or more (almost completely withered)) | 4 (Herbicidal ratio of 70% or higher and lower than 90%) | 5 (Herbicidal ratio of 90% or more (almost completely withered)) | 5 (Herbicidal ratio of 90% or more (almost completely withered)) | 3 (Herbicidal ratio of 40% or higher and lower than 70%) | J: Alopecurus myosuroides, herbicidal effect grade (Alopecurus myosuroides [3]): 4 (Herbicidal ratio of 70% or higher and lower than 90%); c: corn, effect grade on crop (corn [4]): 0 (Herbicidal ratio of 5% or lower (almost no effect)); N: Amaranthus retroflexus, herbicidal effect (criteria 0-5) (Amaranthus retroflexus): 1 (Herbicidal ratio of 5% or higher and lower than 20%); herbicidal effect on H (Echinochloa crus-galli var. crus-galli), grade 0-5 [5]: 5 (Herbicidal ratio of 90% or more (almost completely withered)); M: Abutilon theophrasti, herbicidal effect grade (Abutilon theophrasti): 0 (Herbicidal ratio of 5% or lower (almost no effect)); c: corn, effect on crop (criteria 0-5) (corn [6]): 1 (Herbicidal ratio of 5% or higher and lower than 20%)
COc1ccc(CON=C(C)CC2CC(O)=C(c3c(C)cc(C)cc3C)C2=O)cc1 (stereo not drawn) [1-112] | – | – | – | 4 (Herbicidal ratio of 70% or higher and lower than 90%) | – | – | – | – | 4 (Herbicidal ratio of 70% or higher and lower than 90%) | – | – | – | – | – | 3 (Herbicidal ratio of 40% or higher and lower than 70%) | 5 (Herbicidal ratio of 90% or more (almost completely withered)) | 5 (Herbicidal ratio of 90% or more (almost completely withered)) | 5 (Herbicidal ratio of 90% or more (almost completely withered)) | 5 (Herbicidal ratio of 90% or more (almost completely withered)) | 3 (Herbicidal ratio of 40% or higher and lower than 70%) | J: Alopecurus myosuroides, herbicidal effect grade (Alopecurus myosuroides [3]): 5 (Herbicidal ratio of 90% or more (almost completely withered)); c: corn, effect grade on crop (corn [4]): 1 (Herbicidal ratio of 5% or higher and lower than 20%); N: Amaranthus retroflexus, herbicidal effect (criteria 0-5) (Amaranthus retroflexus): 0 (Herbicidal ratio of 5% or lower (almost no effect)); herbicidal effect on H (Echinochloa crus-galli var. crus-galli), grade 0-5 [5]: 5 (Herbicidal ratio of 90% or more (almost completely withered)); M: Abutilon theophrasti, herbicidal effect grade (Abutilon theophrasti): 0 (Herbicidal ratio of 5% or lower (almost no effect)); c: corn, effect on crop (criteria 0-5) (corn [6]): 4 (Herbicidal ratio of 70% or higher and lower than 90%)
CC#Cc1cc(C)c(C2=C(O)CC(CC(=NOC)C3CC3)C2=O)c(C)c1 (stereo not drawn) [9-008] | 4 (Herbicidal ratio of 70% or higher and lower than 90%) | 5 (Herbicidal ratio of 90% or more (almost completely withered)) | 5 (Herbicidal ratio of 90% or more (almost completely withered)) | 5 (Herbicidal ratio of 90% or more (almost completely withered)) | 5 (Herbicidal ratio of 90% or more (almost completely withered)) | 5 (Herbicidal ratio of 90% or more (almost completely withered)) | 3 (Herbicidal ratio of 40% or higher and lower than 70%) | 5 (Herbicidal ratio of 90% or more (almost completely withered)) | 4 (Herbicidal ratio of 70% or higher and lower than 90%) | 4 (Herbicidal ratio of 70% or higher and lower than 90%) | 0 (Herbicidal ratio of 5% or lower (almost no effect)) | 5 (Herbicidal ratio of 90% or more (almost completely withered)) | 4 (Herbicidal ratio of 70% or higher and lower than 90%) | 5 (Herbicidal ratio of 90% or more (almost completely withered)) | – | – | – | – | – | – | –
COCCON=C(CC1CC(O)=C(c2c(C)cc(Br)cc2C)C1=O)C1CC1 (stereo not drawn) [9-019] | 0 (Herbicidal ratio of 5% or lower (almost no effect)) | 4 (Herbicidal ratio of 70% or higher and lower than 90%) | 4 (Herbicidal ratio of 70% or higher and lower than 90%) | 3 (Herbicidal ratio of 40% or higher and lower than 70%) | 0 (Herbicidal ratio of 5% or lower (almost no effect)) | 4 (Herbicidal ratio of 70% or higher and lower than 90%) | 0 (Herbicidal ratio of 5% or lower (almost no effect)) | 5 (Herbicidal ratio of 90% or more (almost completely withered)) | 0 (Herbicidal ratio of 5% or lower (almost no effect)) | 0 (Herbicidal ratio of 5% or lower (almost no effect)) | 0 (Herbicidal ratio of 5% or lower (almost no effect)) | 5 (Herbicidal ratio of 90% or more (almost completely withered)) | 0 (Herbicidal ratio of 5% or lower (almost no effect)) | 5 (Herbicidal ratio of 90% or more (almost completely withered)) | – | – | – | – | – | – | –
COC(=O)c1ccc(CON=C(C)CC2CC(O)=C(c3c(C)cc(C)cc3C)C2=O)cc1 (stereo not drawn) [1-118] | – | – | – | 2 (Herbicidal ratio of 20% or higher and lower than 40%) | – | – | – | – | 0 (Herbicidal ratio of 5% or lower (almost no effect)) | – | – | – | – | – | 3 (Herbicidal ratio of 40% or higher and lower than 70%) | 0 (Herbicidal ratio of 5% or lower (almost no effect)) | 4 (Herbicidal ratio of 70% or higher and lower than 90%) | 3 (Herbicidal ratio of 40% or higher and lower than 70%) | 4 (Herbicidal ratio of 70% or higher and lower than 90%) | 0 (Herbicidal ratio of 5% or lower (almost no effect)) | J: Alopecurus myosuroides, herbicidal effect grade (Alopecurus myosuroides [3]): 3 (Herbicidal ratio of 40% or higher and lower than 70%); c: corn, effect grade on crop (corn [4]): 0 (Herbicidal ratio of 5% or lower (almost no effect)); N: Amaranthus retroflexus, herbicidal effect (criteria 0-5) (Amaranthus retroflexus): 0 (Herbicidal ratio of 5% or lower (almost no effect)); herbicidal effect on H (Echinochloa crus-galli var. crus-galli), grade 0-5 [5]: 4 (Herbicidal ratio of 70% or higher and lower than 90%); M: Abutilon theophrasti, herbicidal effect grade (Abutilon theophrasti): 0 (Herbicidal ratio of 5% or lower (almost no effect)); c: corn, effect on crop (criteria 0-5) (corn [6]): 4 (Herbicidal ratio of 70% or higher and lower than 90%)
